In US12692253B2, “Antimicrobial compounds and methods” (Curza Global, LLC, priority 2019, dated 2026):
Read-outs that look alike come from different tables or passages of the source.

Key:
E. coli (Ec) = test: Broth microdilution minimum inhibitory concentration (MIC), CLSI; type: cell-based; settings: for MIC: Escherichia coli, read-out: E. coli + bicarb MIC
Procedure, shortened: (§1)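 Two-fold serial dilutions in CAMHB, optionally with sodium bicarbonate (6.25 or 25 mM final) or heat-inactivated human serum (0-50%), 8 concentrations, triplicate. Inoculum 5×10^4 CFU/well from log-phase cultures grown at 35±2 °C to 0.5 McFarland.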

S. aureus (Sa) = test: as above; type: cell-based; settings: for MIC: Staphylococcus aureus, read-out: Sa + bicarb MIC
Procedure, shortened: as §1

P. aeruginosa (Pa) = test: as above; type: cell-based; settings: for MIC: Pseudomonas aeruginosa, read-out: Pa MIC + bicarb
Procedure, shortened: as §1

A. baumannn (Ab) = test: as above; type: cell-based; settings: for MIC: read-out: Ab + bicarb MIC
Procedure, shortened: as §1

E. faecalis (Ef) = test: as above; type: cell-based; settings: for MIC: Enterococcus faecalis, read-out: Ef + bicarb MIC
Procedure, shortened: as §1

[1] = biological target: Rabbit Reticulocyte Lysate (eukaryotic protein synthesis); test: Rabbit reticulocyte lysate luciferase assay (inhibition of eukaryotic protein synthesis); type: biochemical; settings: read-out: Rabbit reticulocyte IC50 (μM/% inhib.)
Procedure, shortened: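 Percent inhibition calculated against water-only controls from luminescence; background set by lysate lacking RNA. Compounds, 8-point 2-fold titration, incubated 90 minutes at 30° C with nuclease-treated rabbit reticulocyte lysate programmed with luciferase control RNA plus complete amino acids.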

[2] = system: E. coli S30 extract (bacterial protein synthesis); test: E. coli S30 extract coupled transcription-translation luciferase assay (inhibition of bacterial protein synthesis); type: biochemical; settings: read-out: S30 IC50 (μM/% inhib.)
Procedure, shortened: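 Luciferase luminescence quantified inhibition of protein synthesis relative to water controls, with no-DNA reactions giving background. Compounds in 2-fold serial dilution (8 levels) were incubated 1 hour at 37 °C with E. coli S30 extract, amino acids and pBESTluc plasmid, then chilled to stop.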

[3] = growth medium with sodium bicarbonate
[4] = A. baumannn, growth medium with sodium bicarbonate
[5] = growth medium supplemented with sodium bicarbonate
[6] = class by IC50 or % inhibition @ 1 μM

Structure (SMILES) | MIC (E. coli (Ec); [3]) [µg/mL] | MIC (S. aureus (Sa); [3]) [µg/mL] | MIC (P. aeruginosa (Pa); [3]) [µg/mL] | MIC (A. baumannn (Ab); [4]) [µg/mL] | MIC (E. faecalis (Ef); [3]) [µg/mL] | IC50 ([1]; % inhibition @ 1 μM) [µM] | IC50 ([2]; % inhibition @ 1 μM) [µM] | MIC (E. coli (Ec); [5]) [µg/mL] | MIC (S. aureus (Sa); [5]) [µg/mL] | MIC (P. aeruginosa (Pa); [5]) [µg/mL] | MIC (A. baumannn (Ab); Acinetobacter baumannii) [µg/mL] | MIC (E. faecalis (Ef); [5]) [µg/mL] | IC50 [1, 6] [µM] | IC50 [2, 6] [µM] | E. coli + bicarb MIC (E. coli (Ec); [3]) | Sa + bicarb MIC (S. aureus (Sa); [3]) | Pa MIC + bicarb (P. aeruginosa (Pa); [3]) | Ab + bicarb MIC (A. baumannn (Ab); [4]) | Ef + bicarb MIC (E. faecalis (Ef); [3])
CC(C)(N)C(=O)N1CCN(C(=O)Nc2ccn(-c3ccc(CNC45CCC(N)(CC4)C5)cc3)c(=O)n2)CC1 [Compound 168] | < 8 | < 8 | > 32 | > 32 | < 8 | ≥ 1 | < 0.5 |  |  |  |  |  |  |  |  |  |  |  | 
CC(C)(N)C(=O)N1CCN(C(=O)Nc2ccn(-c3ccc(CN4C[C@@H]5[C@@H](CN)[C@@H]5C4)cc3)c(=O)n2)CC1 [Compound 68] |  |  |  |  |  |  |  | < 8 | < 8 | > 32 | > 32 | > 32 | ≥ 1 | < 0.5 |  |  |  |  | 
CC(Cc1ccc(-n2ccc(NC(=O)N3CCN(C(=O)[C@@](C)(N)CO)CC3)nc2=O)cc1)N1CCC2(CC1)CC(N)C2 (stereo partly shown) [Compound 115] |  |  |  |  |  |  |  | < 8 | < 8 | > 32 | > 32 | < 8 | ≥ 1 | < 0.5 |  |  |  |  | 
CC(C)(N)C(=O)N1CCN(C(=O)Nc2ccn(-c3ccc(CN4C[C@@H]5[C@H](C4)[C@H]5C(N)=O)cc3)c(=O)n2)CC1 [Compound 74] |  |  |  |  |  |  |  | 8 to 32 | 8 to 32 | > 32 | > 32 | > 32 | ≥ 1 | ≥ 1 |  |  |  |  | 
CC(c1ccc(-n2ccc(NC(=O)N3CCN(C(=O)C(C)(C)N)CC3)nc2=O)cc1)N1C[C@@H]2[C@@H](N)[C@@H]2C1 (stereo partly shown) [Compound 67] |  |  |  |  |  |  |  | < 8 | < 8 | > 32 | > 32 | < 8 | ≥ 1 | < 0.5 |  |  |  |  | 
CN(Cc1ccc(-n2ccc(NC(=O)N3CCN(C(=O)C(C)(C)N)CC3)nc2=O)cc1)C12CCC(N)(CC1)C2 [Compound 164] | < 8 | < 8 | > 32 | 8 to 32 | < 8 | ≥ 1 | < 0.5 |  |  |  |  |  |  |  |  |  |  |  | 
CC(COc1ccc(-n2ccc(NC(=O)N3CCN(C(=O)C(C)(C)N)CC3)nc2=O)cc1)N1CC2(CC(N)C2)C1 (stereo not shown) [Compound 181] | < 8 | < 8 | > 32 | > 32 | < 8 | ≥ 1 | 0.5 to 1 |  |  |  |  |  |  |  |  |  |  |  | 
CC(C)(N)C(=O)N1CCN(C(=O)Nc2ccn(-c3ccc(CN4C[C@@H]5[C@@H](N)[C@@H]5[C@H]4CO)cc3)c(=O)n2)CC1 [Compound 66] |  |  |  |  |  |  |  | < 8 | 8 to 32 | > 32 | > 32 | > 32 | ≥ 1 | 0.5 to 1 |  |  |  |  | 
CC(Cc1ccc(-n2ccc(NC(=O)N3CCN(C(=O)C(C)(C)N)CC3)nc2=O)cc1)N1C[C@@H]2[C@@H](CN)[C@@H]2C1 (stereo partly shown) [Compound 122] |  |  |  |  |  |  |  | < 8 | < 8 | < 8 | 8 to 32 | < 8 | ≥ 1 | < 0.5 |  |  |  |  | 
CCC(Cc1ccc(-n2ccc(NC(=O)N3CCN(C(=O)C(C)(C)N)CC3)nc2=O)cc1)N1CC2CCC(N)CC2C1 (stereo not shown) [Compound 245] |  |  |  |  |  | ≥ 1 | 0.5 to 1 |  |  |  |  |  |  |  | +++ (An MIC value (μg/mL) that is less than 8 μg/mL) | ++ (An MIC value (μg/mL) that is 8 μg/mL or greater and less than 32 μg/mL) | + (An MIC (μg/mL) value that is 32 μg/mL or greater) | + (An MIC (μg/mL) value that is 32 μg/mL or greater) | + (An MIC (μg/mL) value that is 32 μg/mL or greater)
CCC(Cc1ccc(-n2ccc(NC(=O)N3CCN(C(=O)C(C)(C)N)CC3)nc2=O)cc1F)N1C[C@@H]2[C@@H](CN)[C@@H]2C1 (stereo partly shown) [Compound 154] |  |  |  |  |  |  |  | < 8 | < 8 | < 8 | < 8 | < 8 | ≥ 1 | < 0.5 |  |  |  |  | 
CC(Cc1ccc(-n2ccc(NC(=O)N3CCN(C(=O)C(C)(C)N)CC3)nc2=O)cc1)N1CCC2(CC1)CC2CN (stereo not shown) [Compound 237] | < 8 | > 32 | > 32 | > 32 | > 32 | ≥ 1 | ≥ 1 |  |  |  |  |  |  |  |  |  |  |  | 
Cc1cc(-n2ccc(NC(=O)N3CCN(C(=O)C(C)(C)N)CC3)nc2=O)ccc1CCN1CCC2CC2(N)C1 (stereo not shown) [Compound 101] |  |  |  |  |  |  |  | < 8 | < 8 | > 32 | 8 to 32 | < 8 | ≥ 1 | < 0.5 |  |  |  |  | 
